The values below come from US20090012089A1, “Oxazolidinone Compounds and Their Use as Metabotropic Glutamate Receptor Potentiators” (ASTRAZENECA AB, priority 2005, published 2009).

Each structure is given as a SMILES string.

The target of this assay is T1, human mGluR2 (Homo sapiens, UniProt Q14416).
T1 construct: expressed in transfected cells; host or cells: CHO cells, stably transfected; membrane preparation
Description: [35S]-GTPγS binding assay of mGluR2 receptor activation (allosteric activator activity) with CHO cell membranes. Type of assay: biochemical. The conditions noted are these: membranes from CHO cells stably expressing human mGluR2; in presence of 1 μM glutamate. As to the method:
A [^35S]-GTPγS binding assay was used to functionally assay mGluR2 receptor activation. The allosteric activator activity of compounds at the human mGluR2 receptor were measured using a [^35S]-GTPγS binding assay with membranes prepared from CHO cells which stably express the human mGluR2. The assay is based upon the principle that agonists bind to G-protein coupled receptors to stimulate GDP-GTP exchange at the G-protein. Since [^35S]-GTPγS is a non-hydrolyzable GTP analog, it can be used to provide an index of GDP-GTP exchange and, thus, receptor activation. The GTPγS binding assay therefore provides a quantitative measure of receptor activation.
Membranes were prepared from CHO cells stably transfected with human mGluR2. Membranes (30 μg protein) were incubated with test compound (3 nM to 300 μM) for 15 minutes at room temperature prior to the addition of 1 μM glutamate, and incubated for 30 min at 30° C. in 500 μl assay buffer (20 mM HEPES, 100 mM NaCl, 10 mM MgCl2), containing 30 μM GDP and 0.1 nM [^35S]-GTPγS (1250 Ci/mmol). Reactions were carried out in triplicate in 2 ml polypropylene 96-well plates. Reactions were terminated by vacuum filtration using a Packard 96-well harvester and Unifilter-96, GF/B filter microplates. The filter plates were washed 4×1.5 ml with ice-cold wash buffer (10 mM sodium phosphate buffer, pH 7.4). The filter plates were dried and 35 μl of scintillation fluid (Microscint 20) was added to each well. The amount of radioactivity bound was determined by counting plates on the Packard TopCount. Data was analyzed using GraphPad Prism, and EC50 and Emax values (relative to the maximum glutamate effect) were calculated using non-linear regression.

T1 sequence (Q14416 19-872): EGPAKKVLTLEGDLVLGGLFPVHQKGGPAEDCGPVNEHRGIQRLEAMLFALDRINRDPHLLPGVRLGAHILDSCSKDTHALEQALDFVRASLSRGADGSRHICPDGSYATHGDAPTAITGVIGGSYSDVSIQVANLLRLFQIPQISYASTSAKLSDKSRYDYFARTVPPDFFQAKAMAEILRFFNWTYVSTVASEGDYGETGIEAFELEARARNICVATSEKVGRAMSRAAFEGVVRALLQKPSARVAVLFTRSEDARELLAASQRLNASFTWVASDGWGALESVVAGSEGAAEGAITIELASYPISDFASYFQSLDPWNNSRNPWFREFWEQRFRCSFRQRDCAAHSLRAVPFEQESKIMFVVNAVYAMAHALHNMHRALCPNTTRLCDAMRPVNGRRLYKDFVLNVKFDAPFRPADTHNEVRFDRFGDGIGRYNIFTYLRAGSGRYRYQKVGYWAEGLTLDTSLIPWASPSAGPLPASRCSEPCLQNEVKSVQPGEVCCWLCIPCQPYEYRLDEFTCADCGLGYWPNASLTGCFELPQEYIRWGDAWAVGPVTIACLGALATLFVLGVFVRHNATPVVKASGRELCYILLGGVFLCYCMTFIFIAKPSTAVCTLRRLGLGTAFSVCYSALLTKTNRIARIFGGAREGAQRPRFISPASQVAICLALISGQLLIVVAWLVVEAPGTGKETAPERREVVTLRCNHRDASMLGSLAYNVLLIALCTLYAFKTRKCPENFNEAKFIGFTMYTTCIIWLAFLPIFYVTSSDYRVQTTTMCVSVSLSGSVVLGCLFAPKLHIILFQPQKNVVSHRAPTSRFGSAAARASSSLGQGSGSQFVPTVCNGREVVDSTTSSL

On to `O=C(NC1CCN(Cc2ccccc2)C1)c1ccc(-c2ccc(CN3C[C@@H](c4ccccc4)OC3=O)cc2)cc1` (stereo in doubt) [Example 10.29, 4′-(2-Oxo-5-(R)-phenyl-oxazolidin-3-ylmethyl)-biphenyl-4-carboxylicacid (1-benzyl-pyrrolidin-3-(S)-yl)-amide], for which the EC50 is 0.12 µM.

For `O=C1O[C@H](c2ccccc2)CN1Cc1ccc(OC(F)(F)F)cc1` [Example 3.1, 5-(R)-Phenyl-3-(4-trifluoromethoxy-benzyl)-oxazolidin-2-one], the concentration giving a half-maximal response (EC50) was 1.96 µM.

`O=C1OC(c2ccc(F)cc2)CN1Cc1ccc(Oc2ccccc2)cc1` (centres unmarked) [Example 13.5, 5-(4-Fluoro-phenyl)-3-(4-phenoxy-benzyl)-oxazolidin-2-one]: the concentration giving a half-maximal response (EC50) worked out at 0.39 µM.

On to `COc1cncc(-c2ccc(C3CN(Cc4ccc(OC(F)(F)F)cc4)C(=O)O3)cc2)c1` (centres unmarked) [Example 17.2, 5-[4-(5-Methoxy-pyridin-3-yl)-phenyl]-3-(4-trifluoromethoxy-benzyl)-oxa-zolidin-2-one], for which the EC50 is 0.91 µM.

Consider `CN(C)CCNC(=O)c1cccc(-c2ccc(C3CN(Cc4ccc(Cl)cc4)C(=O)O3)cc2)c1` (centres unmarked) [Example 17.3, 4′-[3-(4-Chloro-benzyl)-2-oxo-oxa-zolidin-5-yl]-biphenyl-3-carboxylic acid(2-dimethylamino-ethyl)-amide], for which the EC50 worked out at 3.1 µM.
